{
  "source": "paper PMC9487510",
  "about": "“A Novel Oral GyrB/ParE Dual Binding Inhibitor Effective against Multidrug-Resistant Neisseria gonorrhoeae and Other High-Threat Pathogens” (Antimicrobial Agents and Chemotherapy, 2022)",
  "key": {"[1]": {"system": "N. gonorrhoeae clinical isolates", "experiment": "MIC, agar dilution (CLSI)", "assay_type": "cell-based, Neisseria gonorrhoeae", "details": "Neisseria gonorrhoeae; for MIC: read-out: MIC"}, "VRSA": {"system": "VRSA", "experiment": "MIC, in vitro susceptibility testing (CLSI)", "assay_type": "cell-based, Staphylococcus aureus", "details": "for MIC: Staphylococcus aureus, VRSA"}, "C. difficile": {"system": "C. difficile", "experiment": "MIC, toxigenic C. difficile panel (CLSI)", "assay_type": "cell-based, Clostridioides difficile"}, "[2]": {"system": "E. coli, Pseudomonas aeruginosa, Klebsiella pneumoniae, Acinetobacter baumannii, Francisella tularensis, Yersinia pestis", "experiment": "organism not typed", "assay_type": "cell-based"}, "E. coli": {"system": "E. coli", "experiment": "microbe, parasite or virus in culture", "assay_type": "cell-based", "details": "Escherichia coli"}, "[3]": {"experiment": "Kinetic aqueous solubility", "assay_type": "physicochemical", "details": "aqueous medium (not further specified)"}, "[4]": {"experiment": "Liver microsome stability, human", "assay_type": "in vitro ADME", "details": "liver microsomes", "method": "Liver microsome stability assays were performed by BioDuro Inc. Human and mouse (CD-1 male) liver microsomes were used. […] Next, 50 μL of reaction buffer was added to solution and mixed via pipetting up and down 6 times. At each time point of 0, 30, and 60 min, an aliquot of 20 μL was removed from each tube. Liver microsomes (LM) working solution was prepared in 0.05 M phosphate reaction buffer (pH = 7.4) to a final concentration of 1.27 mg/mL. NADPH solution was prepared in 0.05 M phosphate buffer to afford a 5 mM buffer solution. […] After vortexing and incubating for 5 min (37°C), 50 μL of NADPH solution was added and mixed via pipetting. At each time point of 0, 5, 15, 30, and 60 min, an aliquot of 20 μL was removed from each tube. Next, 250 μL of quenching solution was aliquoted to quench the reaction, which was then vortexed for 1 min and placed on ice for 40 min. After centrifugation at 4,000 × g for 15 min, 100 μL of supernatant was transferred using a multichannel pipette to 0.65-mL tubes. Samples were diluted with MeOH: H2O (1:1) as necessary. Samples were analyzed by high-pressure liquid chromatography coupled to tandem mass spectrometry (LC/MS/MS) performed on a Sciex Applied Biosystems Qtrap 4000 triple-quadrupole mass spectrometer coupled to a Shimadzu HPLC system to quantify the remaining compound. […]"}, "Serum protein binding": {"experiment": "Serum protein binding", "assay_type": "in vitro ADME"}, "MRSA": {"system": "MRSA", "assay_type": "cell-based, S. aureus", "details": "at 1× MIC; resistance not observed; data not shown"}},
  "note": "Where two headings read alike, the source gives them in different places.",
  "data": [
    {"smiles": "CNc1cc(F)cc2c1[nH]c1nc(Oc3cnc(C)nc3)nc(N3CCC4(CC3)CO[C@@H](CO)C4)c12", "note": "[JSF-2414]", "values": [
      {"measurement": "MIC", "setting": "[1]; strain CDC60 (GCREF2013 005)", "result": 7.8, "unit": "ng/mL"},
      {"measurement": "MIC", "setting": "[1]; strain CDC61 (GCREF2013 006)", "result": 7.8, "unit": "ng/mL"},
      {"measurement": "MIC", "setting": "[1]; strain CDC62 (GCREF2013 007)", "result": 16, "unit": "ng/mL"},
      {"measurement": "MIC", "setting": "[1]; strain CDC63 (GCREF2013 008)", "result": 7.8, "unit": "ng/mL"},
      {"measurement": "MIC", "setting": "[1]; strain CDC64 (GCREF2013 009)", "result": 16, "unit": "ng/mL"},
      {"measurement": "MIC", "setting": "[1]; strain CDC65 (GCREF2013 010)", "result": 7.8, "unit": "ng/mL"},
      {"measurement": "MIC", "setting": "[1]; strain CDC66 (GCREF2013 011)", "result": 16, "unit": "ng/mL"},
      {"measurement": "MIC", "setting": "[1]; strain CDC67 (GCREF2013 014)", "result": 7.8, "unit": "ng/mL"},
      {"measurement": "MIC", "setting": "[1]; strain CDC68 (GCREF2013 016)", "result": 2, "unit": "ng/mL"},
      {"measurement": "MIC", "setting": "[1]; strain CDC69 (GCREF2013 017)", "result": 2, "unit": "ng/mL"},
      {"measurement": "MIC", "setting": "[1]; strain CDC70 (GCREF2013 018)", "result": 3.9, "unit": "ng/mL"},
      {"measurement": "MIC", "setting": "[1]; strain CDC71 (GCREF2013 019)", "result": 16, "unit": "ng/mL"},
      {"measurement": "MIC", "setting": "[1]; strain CDC72 (GCREF2013 020)", "result": 7.8, "unit": "ng/mL"},
      {"measurement": "MIC", "setting": "[1]; strain CDC73 (GCREF2013 021)", "result": 16, "unit": "ng/mL"},
      {"measurement": "MIC", "setting": "[1]; strain CDC74 (GCREF2013 022)", "result": 16, "unit": "ng/mL"},
      {"measurement": "MIC", "setting": "[1]; strain CDC75 (GCREF2013 023)", "result": 7.8, "unit": "ng/mL"},
      {"measurement": "MIC", "setting": "[1]; strain CDC76 (GCREF2013 024)", "result": 7.8, "unit": "ng/mL"},
      {"measurement": "MIC", "setting": "[1]; strain CDC77 (GCREF2013 025)", "result": 7.8, "unit": "ng/mL"},
      {"measurement": "MIC", "setting": "[1]; strain CDC78 (GCREF2013 026)", "result": 0.5, "unit": "ng/mL"},
      {"measurement": "MIC", "setting": "[1]; strain CDC79 (GCREF2013 027)", "result": 3.9, "unit": "ng/mL"},
      {"measurement": "MIC", "setting": "[1]; strain CDC80 (GCREF2013 028)", "result": 3.9, "unit": "ng/mL"},
      {"measurement": "MIC", "setting": "[1]; strain CDC81 (GCREF2013 029)", "result": 3.9, "unit": "ng/mL"},
      {"measurement": "MIC", "setting": "[1]; strain CDC82 (GCREF2013 031)", "result": 7.8, "unit": "ng/mL"},
      {"measurement": "MIC", "setting": "[1]; strain CDC83 (GCREF2013 032)", "result": 16, "unit": "ng/mL"},
      {"measurement": "MIC", "setting": "[1]; strain CDC84 (GCREF2013 033)", "result": 7.8, "unit": "ng/mL"},
      {"measurement": "MIC", "setting": "[1]; strain CDC86 (GCREF2013 035)", "result": 7.8, "unit": "ng/mL"},
      {"measurement": "MIC", "setting": "[1]; strain CDC87 (GCREF2013 036)", "result": 3.9, "unit": "ng/mL"},
      {"measurement": "MIC", "setting": "[1]; strain CDC88 (GCREF2013 037)", "result": 7.8, "unit": "ng/mL"},
      {"measurement": "MIC", "setting": "[1]; strain CDC89 (GCREF2013 038)", "result": 3.9, "unit": "ng/mL"},
      {"measurement": "MIC", "setting": "[1]; strain CDC90 (GCREF2013 039)", "result": 7.8, "unit": "ng/mL"},
      {"measurement": "MIC", "setting": "[1]; strain CDC91 (GCREF2013 040)", "result": 7.8, "unit": "ng/mL"},
      {"measurement": "MIC", "setting": "[1]; strain CDC92 (GCREF2013 041)", "result": 3.9, "unit": "ng/mL"},
      {"measurement": "MIC", "setting": "[1]; strain CDC93 (GCREF2013 042)", "result": 3.9, "unit": "ng/mL"},
      {"measurement": "MIC", "setting": "[1]; strain CDC94 (GCREF2013 043)", "result": 7.8, "unit": "ng/mL"},
      {"measurement": "MIC", "setting": "[1]; strain CDC95 (GCREF2013 045)", "result": 7.8, "unit": "ng/mL"},
      {"measurement": "MIC", "setting": "[1]; strain CDC96 (GCREF2013 046)", "result": 2, "unit": "ng/mL"},
      {"measurement": "MIC", "setting": "[1]; strain CDC97 (GCREF2013 047)", "result": 3.9, "unit": "ng/mL"},
      {"measurement": "MIC", "setting": "[1]; strain CDC98 (GCREF2013 048)", "result": 7.8, "unit": "ng/mL"},
      {"measurement": "MIC", "setting": "[1]; strain CDC99 (GCREF2013 012)", "result": 7.8, "unit": "ng/mL"},
      {"measurement": "MIC", "setting": "[1]; strain CDC100 (GCREF2013 015)", "result": 3.9, "unit": "ng/mL"},
      {"measurement": "MIC50", "setting": "[1]; 96 clinical isolates, read-out: MIC50", "result": 3.9, "unit": "ng/mL"},
      {"measurement": "MIC90", "setting": "[1]; 96 clinical isolates, read-out: MIC90", "result": 7.8, "unit": "ng/mL"},
      {"measurement": "MIC range", "setting": "VRSA; N = 7 (Van: 9)", "result": "15.6 to 31", "unit": "ng/mL"},
      {"measurement": "MIC", "setting": "VRSA; strain 2 25 23", "result": 16, "unit": "ng/mL"},
      {"measurement": "MIC", "setting": "VRSA; strain 2 25 24", "result": "16 to 31", "unit": "ng/mL"},
      {"measurement": "MIC", "setting": "VRSA; strain 2 25 25", "result": "16 to 31", "unit": "ng/mL"},
      {"measurement": "MIC", "setting": "VRSA; strain 2 25 26", "result": "15.6 to 31", "unit": "ng/mL"},
      {"measurement": "MIC", "setting": "VRSA; strain 2 25 27", "result": 31, "unit": "ng/mL"},
      {"measurement": "MIC", "setting": "VRSA; strain 2 25 28", "result": "15.6 to 31", "unit": "ng/mL"},
      {"measurement": "MIC", "setting": "VRSA; strain VRS2 (VRS-2)", "result": 31, "unit": "ng/mL"},
      {"measurement": "MIC", "setting": "C. difficile; Clostridioides difficile, BAA1805, strain BAA-1805, read-out: MIC", "result": 31, "unit": "ng/mL"},
      {"measurement": "MIC range", "setting": "C. difficile; N = 9, toxigenic panel", "result": "7.8 to 63", "unit": "ng/mL"},
      {"measurement": "MIC", "setting": "[2]", "result": "> 500", "unit": "ng/mL"},
      {"measurement": "MIC", "setting": "E. coli", "result": 500, "unit": "ng/mL"},
      {"measurement": "solubility kinetic", "setting": "[3]", "result": 0.576, "unit": "µM"},
      {"measurement": "microsomal CLint at 1 μM", "setting": "[4]; pH 7.4, read-out: HLM Clint", "result": 2.1, "unit": "µL/min/mg"},
      {"measurement": "half-life at 1 μM", "setting": "[4]; pH 7.4, read-out: HLM t1/2", "result": 5.5, "unit": "h"},
      {"measurement": "fraction unbound", "setting": "Serum protein binding", "result": 0.012},
      {"measurement": "spontaneous resistance frequency", "setting": "MRSA", "result": "< 5.0 × 10^−9"}
    ]}
  ]
}
